Tested on: INS1 cells
Assay: RNAseq of INS1 cells grown in chronic high glucose compared to controls and stimulated with FSK (Table 2)
Type: cell-based, rat
Conditions: Low glucose
Method: INS-1 insulinoma cells were cultured in RPMI (corning cellgro) containing 10% fetal bovine serum (Gemini Bio Products), 100 μg/mL penicillin-streptomycin and 1 mM sodium pyruvate (corning cellgro). MIN6 cells were grown in DMEM (corning cellgro) with 10% FBS, 100 μg/mL penicillin-streptomycin and 70 uM beta-mercaptoethanol. For chronic glucose experiments, cells were maintained under low (2.8 mM) or high (20 mM) glucose for 3 days. Exendin-4 (10 nM), Forskolin (10 μM), KCl (40 mM), DMOG (1 mM) and rapamycin (50 nM) were added to cells as indicated. Cellular cAMP levels were measured using an ELISA kit (Cayman Chemical Company) according to manufacturer's instructions. Total RNAs from cells or primary islets were extracted using Trizol and cDNA was generated using the Transcriptor First Strand cDNA Synthesis kit (Roche Applied Science). cDNAs were quantified on a lightcycler 480 instrument (Roche Applied Science). Gene expression data were presented relative to the expression of housekeeping gene L32 (rat samples) and 18S (mouse and human islets). RNA-Seq libraries were prepared using the mRNA isolation protocol and the NEBNext-Ultra kits from New England Biolabs following the manufacturer's protocols. Libraries were quantitated by Qubit (Invitrogen), and run on a MiSeq instrument with paired-end 75 bp reads using v3 chemistry (Illumina) Data were analyzed by tophat2 and cuffdiff against the mouse mm10 genome build. The GEO accession number for RNAseq studies reported in the paper is GSE60158.

C=C[C@@]1(C)CC(=O)[C@]2(O)[C@@]3(C)[C@@H](O)CCC(C)(C)[C@@H]3[C@H](O)[C@H](OC(C)=O)[C@@]2(C)O1 [FSK, Forskolin]
Agt RNAseq value (FSK): 5.2 | Ahi1 RNAseq value (FSK): 32.6 | Bhlha15 RNAseq value (FSK): 63.9 | Btg3 RNAseq value (FSK): 145.9 | Bysl RNAseq value (FSK): 56.1 | Canx RNAseq value (FSK): 241.6 | Ccni RNAseq value (FSK): 242.1 | Chd1 RNAseq value (FSK): 20.8 | Chrne RNAseq value (FSK): 0.2 | Ctf1 RNAseq value (FSK): 0.2 | Cxcl2 RNAseq value (FSK): 1.0 | Cyth3 RNAseq value (FSK): 30.7 | Dkc1 RNAseq value (FSK): 87.8 | Epha3 RNAseq value (FSK): 0.1 | Epor RNAseq value (FSK): 0.2 | Fam49a RNAseq value (FSK): 0.2 | Ficd RNAseq value (FSK): 89.9 | Fmc1 RNAseq value (FSK): 26.0 | Fn1 RNAseq value (FSK): 852.9 | Gabre RNAseq value (FSK): 0.1 | Gars RNAseq value (FSK): 439.6 | Ggt5 RNAseq value (FSK): 0.3 | Gnl3 RNAseq value (FSK): 31.0 | Gnmt RNAseq value (FSK): 0.4 | Gzmm RNAseq value (FSK): 0.4 | Hmcn1 RNAseq value (FSK): 0.0 | Hmga2 RNAseq value (FSK): 0.5 | Hnrnpa1 RNAseq value (FSK): 34.2 | Hnrpdl RNAseq value (FSK): 160.1 | Hs3st2 RNAseq value (FSK): 0.6 | Hspa4 RNAseq value (FSK): 138.6 | Hspd1 RNAseq value (FSK): 47.6 | Icam2 RNAseq value (FSK): 0.2 | Il13ra1 RNAseq value (FSK): 0.3 | Il28ra RNAseq value (FSK): 10.0 | Kcnb1 RNAseq value (FSK): 48.7 | Kcnj13 RNAseq value (FSK): 1.4 | Kdm1b RNAseq value (FSK): 9.1 | Kif9 RNAseq value (FSK): 0.3 | LOC683722 RNAseq value (FSK): 12.3 | LOC686295 RNAseq value (FSK): 4.9 | LOC689959 RNAseq value (FSK): 17.9 | Lrfn5 RNAseq value (FSK): 0.1 | Map3k4 RNAseq value (FSK): 25.4 | Mef2d RNAseq value (FSK): 146.0 | Megf10 RNAseq value (FSK): 0.1 | Msn RNAseq value (FSK): 1.2 | Myof RNAseq value (FSK): 0.0 | Nckap1l RNAseq value (FSK): 0.2 | Nkx2-2 RNAseq value (FSK): 192.1 | Nolc1 RNAseq value (FSK): 183.8 | Notch4 RNAseq value (FSK): 0.9 | Ormdl3 RNAseq value (FSK): 286.8 | Otop3 RNAseq value (FSK): 0.1 | Pabpc6 RNAseq value (FSK): 0.1 | Pde3b RNAseq value (FSK): 103.8 | Pde4dip RNAseq value (FSK): 61.8 | Pdrg1 RNAseq value (FSK): 43.4 | Plcb2 RNAseq value (FSK): 0.1 | RGD1309079 RNAseq value (FSK): 1.1 | RGD1311084 RNAseq value (FSK): 0.2 | Rab3gap2 RNAseq value (FSK): 53.1 | Rab11fip1 RNAseq value (FSK): 11.0 | Rap2a RNAseq value (FSK): 13.5 | Rho RNAseq value (FSK): 0.2 | Rpl7a RNAseq value (FSK): 0.4 | Rpl17 RNAseq value (FSK): 117.5 | Rrs1 RNAseq value (FSK): 38.4 | Sgce RNAseq value (FSK): 0.2 | Smad1 RNAseq value (FSK): 48.4 | Smad3 RNAseq value (FSK): 5.7 | Snapc1 RNAseq value (FSK): 4.6 | Sncaip RNAseq value (FSK): 7.4 | Spon2 RNAseq value (FSK): 0.7 | Srp54 RNAseq value (FSK): 40.0 | Stard8 RNAseq value (FSK): 0.3 | Syp RNAseq value (FSK): 744.1 | T2 RNAseq value (FSK): 0.2 | Taf1a RNAseq value (FSK): 9.0 | Tex38 RNAseq value (FSK): 0.5 | Tmem114 RNAseq value (FSK): 0.2 | Tomm20 RNAseq value (FSK): 90.1 | Tpp2 RNAseq value (FSK): 12.0 | Twistnb RNAseq value (FSK): 8.1 | Usp9x RNAseq value (FSK): 56.0 | Vps37b RNAseq value (FSK): 52.0 | Zfp830 RNAseq value (FSK): 20.4 | Zfp385d RNAseq value (FSK): 0.2 | Accsl Fold (FSK/control): 2.0

Reference: patent US10258639B2, “Methods for treating insulin resistance and for sensitizing patients to GLP1 agonist therapy” (Research Development Foundation, priority 2014, dated 2019)
